The IC50 is the concentration at which inhibition is half-maximal. Low values mean higher potency, high ones lower potency. Usually inhibition stands for the change of the read-out against control, counted positive when it falls.

Test [1] concerns DU-145. Briefly: Antiproliferative activity against human DU145 cells measured after 72 hrs by EZ-Cytox assay. Conditions: DU-145, 72 h. Type of test: functional, cell-based.
Test [2] relates to HCT-15. Briefly: Antiproliferative activity against human HCT15 cells measured after 72 hrs by EZ-Cytox assay. Type of test: functional, cell-based. As to conditions: HCT-15, 72 h.
Test [3] deals with T1, DNA topoisomerase 1 (Homo sapiens) (UniProt P11387).
T1 sequence (whole entry): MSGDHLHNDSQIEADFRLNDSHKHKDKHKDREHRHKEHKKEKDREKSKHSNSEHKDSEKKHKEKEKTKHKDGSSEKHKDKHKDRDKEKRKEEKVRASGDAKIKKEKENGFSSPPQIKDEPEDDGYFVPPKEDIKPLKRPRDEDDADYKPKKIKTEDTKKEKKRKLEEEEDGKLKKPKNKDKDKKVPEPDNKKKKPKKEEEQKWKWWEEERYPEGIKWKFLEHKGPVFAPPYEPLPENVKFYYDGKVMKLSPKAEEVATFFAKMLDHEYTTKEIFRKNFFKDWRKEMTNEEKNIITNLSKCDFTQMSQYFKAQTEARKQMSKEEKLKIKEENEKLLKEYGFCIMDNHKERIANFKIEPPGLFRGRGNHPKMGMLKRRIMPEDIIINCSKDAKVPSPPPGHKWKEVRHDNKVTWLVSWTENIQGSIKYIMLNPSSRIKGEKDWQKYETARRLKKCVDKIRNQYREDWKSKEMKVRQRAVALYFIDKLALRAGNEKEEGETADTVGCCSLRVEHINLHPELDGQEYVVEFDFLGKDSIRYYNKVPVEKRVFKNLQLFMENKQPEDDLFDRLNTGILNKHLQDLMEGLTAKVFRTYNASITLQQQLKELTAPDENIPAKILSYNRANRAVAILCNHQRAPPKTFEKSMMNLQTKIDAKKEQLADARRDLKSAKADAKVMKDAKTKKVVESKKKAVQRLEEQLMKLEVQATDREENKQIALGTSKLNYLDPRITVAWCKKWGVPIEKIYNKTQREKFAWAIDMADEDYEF
Briefly: Inhibition of recombinant human topoisomerase 1-mediated relaxation of supercoiled pBR322 DNA at 100 uM measured after 30 mins by ethidium bromide staining based agarose gel electrophoresis relative to control.

The subject of test [4] is T47D. Briefly: Antiproliferative activity against human T47D cells measured after 72 hrs by EZ-Cytox assay. The format is functional, cell-based.
The target in test [5] is DNA topoisomerase 2-alpha (Homo sapiens) (UniProt P11388). Briefly: Inhibition of recombinant human topoisomerase 2alpha-mediated relaxation of supercoiled pBR322 DNA at 20 uM measured after 30 mins by ethidium bromide staining based agarose gel electrophoresis relative to control.
Sequence of DNA topoisomerase 2-alpha (Homo sapiens) (P11388 whole entry): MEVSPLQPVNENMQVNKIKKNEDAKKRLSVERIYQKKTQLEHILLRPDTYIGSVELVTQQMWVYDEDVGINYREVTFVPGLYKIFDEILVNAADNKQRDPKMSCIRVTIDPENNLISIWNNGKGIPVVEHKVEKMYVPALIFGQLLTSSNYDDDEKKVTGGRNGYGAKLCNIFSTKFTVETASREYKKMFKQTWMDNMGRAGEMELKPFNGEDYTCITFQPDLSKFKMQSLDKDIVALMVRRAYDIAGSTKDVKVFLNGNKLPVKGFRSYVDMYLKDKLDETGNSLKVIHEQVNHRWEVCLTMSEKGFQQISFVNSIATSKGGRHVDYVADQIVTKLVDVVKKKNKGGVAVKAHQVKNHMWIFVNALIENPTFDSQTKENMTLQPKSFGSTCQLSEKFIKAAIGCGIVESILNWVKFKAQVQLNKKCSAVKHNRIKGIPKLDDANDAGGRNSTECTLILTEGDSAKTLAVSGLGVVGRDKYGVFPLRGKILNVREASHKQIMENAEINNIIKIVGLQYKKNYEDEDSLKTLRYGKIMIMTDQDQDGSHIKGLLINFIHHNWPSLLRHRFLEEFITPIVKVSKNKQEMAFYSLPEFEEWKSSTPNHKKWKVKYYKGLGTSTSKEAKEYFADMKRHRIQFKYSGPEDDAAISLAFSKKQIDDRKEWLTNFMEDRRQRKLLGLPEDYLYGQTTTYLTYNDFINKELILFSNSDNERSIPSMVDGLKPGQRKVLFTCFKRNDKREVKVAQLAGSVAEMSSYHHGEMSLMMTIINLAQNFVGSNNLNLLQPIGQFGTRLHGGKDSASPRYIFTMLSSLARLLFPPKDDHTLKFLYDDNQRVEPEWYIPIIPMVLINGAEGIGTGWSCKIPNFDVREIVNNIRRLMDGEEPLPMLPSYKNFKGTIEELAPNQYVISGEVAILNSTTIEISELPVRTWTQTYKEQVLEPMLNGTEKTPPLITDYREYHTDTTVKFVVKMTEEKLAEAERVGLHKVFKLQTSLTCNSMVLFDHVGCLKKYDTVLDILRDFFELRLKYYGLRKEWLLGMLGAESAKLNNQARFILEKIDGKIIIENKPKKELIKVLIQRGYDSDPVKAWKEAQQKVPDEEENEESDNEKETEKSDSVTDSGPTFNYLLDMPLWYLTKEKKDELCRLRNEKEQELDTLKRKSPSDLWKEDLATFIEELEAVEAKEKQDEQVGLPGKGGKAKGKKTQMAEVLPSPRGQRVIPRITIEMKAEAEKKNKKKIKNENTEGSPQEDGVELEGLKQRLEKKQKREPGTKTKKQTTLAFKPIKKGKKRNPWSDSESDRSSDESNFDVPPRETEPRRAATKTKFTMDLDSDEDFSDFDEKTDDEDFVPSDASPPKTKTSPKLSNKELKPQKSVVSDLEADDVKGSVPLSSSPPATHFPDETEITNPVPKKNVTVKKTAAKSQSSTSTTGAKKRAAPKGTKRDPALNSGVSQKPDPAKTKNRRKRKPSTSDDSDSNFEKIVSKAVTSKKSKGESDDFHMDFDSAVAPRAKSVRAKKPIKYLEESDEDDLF
The target is the same in test [6]. Briefly: Inhibition of recombinant human topoisomerase 2alpha-mediated relaxation of supercoiled pBR322 DNA at 100 uM measured after 30 mins by ethidium bromide staining based agarose gel electrophoresis relative to control.
In test [7] the test system is HeLa. Briefly: Antiproliferative activity against human HeLa cells measured after 72 hrs by EZ-Cytox assay. Type of test: functional, cell-based.

Molecules are shown by their SMILES.

Regarding `Oc1ccc2c(c1)Cc1c(-c3ccccc3O)cc(-c3ccccc3C(F)(F)F)nc1-2`, the IC50 in test [1] came to 2020 nM; in test [2], 1610 nM; in test [4], 1140 nM; in test [7], 2920 nM. Moreover, the figures for the inhibition in test [3], in test [5] and in test [6] were 1.6%, 3.7% and 90.2%, respectively.
Turning to `Oc1cccc(-c2cc(-c3ccc(Cl)cc3)nc3c2Cc2c(O)cccc2-3)c1`, the IC50 stood at 2030 nM in test [1], 1820 nM in test [2], 1960 nM in test [4] and 4320 nM in test [7]. Also, the figures for the inhibition in test [3], in test [5] and in test [6] were 18.6%, 42% and 76.8%, respectively.
Turning to `Oc1ccccc1-c1cc(-c2ccccc2Cl)nc2c1Cc1c(O)cccc1-2`, the concentration for half-maximal inhibition (IC50) in test [1] is 830 nM; in test [2], 770 nM; in test [4], 920 nM; in test [7], 680 nM. Further, the inhibition turned out to be 0% in test [3], 0% in test [5] and 82% in test [6].
With `Oc1ccc(-c2cc(-c3cccc(Cl)c3)c3c(n2)-c2cc(O)ccc2C3)cc1`, the IC50 in test [1] came to 2100 nM; in test [2], 7590 nM; in test [4], 2760 nM; in test [7] it was 8060 nM. Moreover, the inhibition in test [3] amounted to 8.8%; in test [5] it was 1.2%; in test [6], 73.6%.
Regarding `Oc1ccc2c(c1)Cc1c(-c3ccccc3O)cc(-c3cccc(Cl)c3)nc1-2`, the IC50 in test [1] worked out at 360 nM; in test [2], 2760 nM; in test [4], 2770 nM; in test [7], 2690 nM. Also, the inhibition in test [3] was 14.6%; in test [5], 2.6%; in test [6], 80.8%.
For the molecule `Oc1ccccc1-c1cc(-c2ccc(Cl)cc2)c2c(n1)-c1c(O)cccc1C2`, the 50% inhibitory concentration (IC50) was 1950 nM in test [1], 18800 nM in test [2], 13000 nM in test [4] and above 50000 nM in test [7]. The inhibition in test [3] was determined as 0%; in test [5], 6.4%; in test [6] it was 70.5%.
Regarding `Oc1ccccc1-c1cc(-c2ccccc2)nc2c1Cc1c(O)cccc1-2`, the half-inhibitory concentration (IC50) in test [1] stood at 800 nM; in test [2] it was 3470 nM; in test [4], 2330 nM; in test [7], 6320 nM. The inhibition in test [3] came to 0%; in test [5], 0%; in test [6], 78.5%.
For `Oc1ccccc1-c1cc(-c2ccccc2)nc2c1Cc1cccc(O)c1-2`, the IC50 is 170 nM in test [1], 1360 nM in test [2], 2440 nM in test [4] and 2950 nM in test [7]. Besides, the inhibition turned out to be 0.1% in test [3], 0.1% in test [5] and 95.8% in test [6].
Consider `Oc1ccc2c(c1)-c1nc(-c3ccccc3)cc(-c3ccccc3O)c1C2`, for which the 50% inhibitory concentration (IC50) in test [1] was determined as 150 nM; in test [2], 3010 nM; in test [4] it was 2330 nM; in test [7], 3740 nM. Moreover, the inhibition was 0% in test [3], 0% in test [5] and 97.4% in test [6].
Turning to `Oc1ccc(-c2cc(-c3cccc(F)c3)nc3c2Cc2cccc(O)c2-3)cc1`, the IC50 in test [1] is 5780 nM; in test [2], above 50000 nM; in test [4], 750 nM; in test [7], 7200 nM. The inhibition amounted to 1.1% in test [3], 3.9% in test [5] and 67% in test [6].
Regarding `Oc1cccc(-c2cc(-c3ccccc3C(F)(F)F)nc3c2Cc2cc(O)ccc2-3)c1`, the IC50 came to 2500 nM in test [1], 2820 nM in test [2], 1250 nM in test [4] and 4000 nM in test [7]. For the same molecule, the figures for the inhibition in test [3], in test [5] and in test [6] were 11.7%, 2.4% and 80.6%, respectively.
As to `Oc1ccc(-c2cc(-c3ccccc3Cl)nc3c2Cc2cc(O)ccc2-3)cc1`, the IC50 in test [1] was found to be 430 nM; in test [2], 1850 nM; in test [4], 1870 nM; in test [7], 700 nM. Also, the inhibition in test [3] was found to be 7.6%; in test [5] it was 53.6%; in test [6], 86.6%.
Take `Oc1cccc(-c2cc(-c3cccc(F)c3)nc3c2Cc2ccc(O)cc2-3)c1`: the 50% inhibitory concentration (IC50) was 2170 nM in test [1], 1190 nM in test [2], 540 nM in test [4] and 3450 nM in test [7]. Moreover, the inhibition in test [3] came to 17.1%; in test [5], 4.9%; in test [6], 44.2%.
On to `Oc1ccccc1-c1cc(-c2ccc(Cl)cc2)c2c(n1)-c1cccc(O)c1C2`, for which the concentration for half-maximal inhibition (IC50) in test [1] is 12800 nM; in test [2], above 50000 nM; in test [4], above 50000 nM; in test [7], above 50000 nM. For the same molecule, the inhibition in test [3] is 8.4%; in test [5], 1.5%; in test [6], 71.6%.
As to `Oc1ccccc1-c1cc(-c2ccc(C(F)(F)F)cc2)nc2c1Cc1cccc(O)c1-2`, the concentration for half-maximal inhibition (IC50) turned out to be 4500 nM in test [1], 3490 nM in test [2], 4200 nM in test [4] and 5240 nM in test [7]. Moreover, the inhibition was found to be 13.6% in test [3], 0.9% in test [5] and 92.2% in test [6].
`Oc1ccc(-c2cc(-c3ccccc3Cl)c3c(n2)-c2ccc(O)cc2C3)cc1`: the IC50 in test [1] amounted to 3250 nM; in test [2], 4270 nM; in test [4], 2700 nM; in test [7], 4920 nM. Besides, the figures for the inhibition in test [3], in test [5] and in test [6] were 11.9%, 7% and 80%, respectively.
Regarding `Oc1ccccc1-c1cc(-c2cccc(Cl)c2)nc2c1Cc1c(O)cccc1-2`, the IC50 is 560 nM in test [1], 7470 nM in test [2], 640 nM in test [4] and above 50000 nM in test [7]. Further, the inhibition in test [3] was 0%; in test [5] it was 6.9%; in test [6], 83.5%.
In the case of `Oc1cccc(-c2cc(-c3ccccc3)nc3c2Cc2cc(O)ccc2-3)c1`, the IC50 in test [1] amounted to 600 nM; in test [2], 1480 nM; in test [4] it was 2660 nM; in test [7], 5640 nM. In addition, the inhibition in test [3] came to 20%; in test [5], 0%; in test [6] it was 96.8%.
In the case of `Oc1ccc(-c2cc(-c3cccc(Cl)c3)nc3c2Cc2ccc(O)cc2-3)cc1`, the concentration for half-maximal inhibition (IC50) in test [1] is 480 nM; in test [2], 2360 nM; in test [4], 600 nM; in test [7] it was above 50000 nM. Further, the inhibition worked out at 8.7% in test [3], 56.4% in test [5] and 71.3% in test [6].
Consider `Oc1ccc(-c2cc(-c3ccc(Cl)cc3)c3c(n2)-c2cc(O)ccc2C3)cc1`, for which the IC50 in test [1] was found to be 1740 nM; in test [2], 12000 nM; in test [4], 2670 nM; in test [7], 10000 nM. Also, the inhibition in test [3] stood at 14.2%; in test [5], 10.8%; in test [6], 95.3%.
For `Oc1ccc(-c2cc(-c3ccccc3C(F)(F)F)nc3c2Cc2ccc(O)cc2-3)cc1`, the 50% inhibitory concentration (IC50) in test [1] worked out at 2780 nM; in test [2] it was 1320 nM; in test [4], 1470 nM; in test [7], 1520 nM. For the same molecule, the inhibition in test [3] came out at 6.7%; in test [5] it was 1.2%; in test [6], 81%.
Consider `Oc1cccc(-c2cc(-c3ccc(C(F)(F)F)cc3)nc3c2Cc2ccc(O)cc2-3)c1`, for which the half-maximal inhibitory concentration (IC50) is 3180 nM in test [1], 2950 nM in test [2], 1800 nM in test [4] and 3630 nM in test [7]. The inhibition in test [3] worked out at 0%; in test [5], 5.1%; in test [6] it was 100%.
For `Oc1cccc(-c2cc(-c3ccc(F)cc3)nc3c2Cc2ccc(O)cc2-3)c1`, the IC50 in test [1] worked out at 1060 nM; in test [2], 1460 nM; in test [4], 680 nM; in test [7], 3820 nM. The values for the inhibition in test [3], in test [5] and in test [6] were 11.7%, 5.4% and 48.3%, respectively.
Take `Oc1ccccc1-c1cc(-c2cccc(C(F)(F)F)c2)nc2c1Cc1c(O)cccc1-2`: the IC50 in test [1] stood at 1870 nM; in test [2] it was 3340 nM; in test [4] it was 770 nM; in test [7], 4250 nM. The inhibition was 0.3% in test [3], 5.3% in test [5] and 94.2% in test [6].

Values taken from ChEMBL document CHEMBL4373715, “Discovery and Biological Evaluations of Halogenated 2,4-Diphenyl Indeno[1,2-b]pyridinol Derivatives as Potent Topoisomerase IIα-Targeted Chemotherapeutic Agents for Breast Cancer” (J Med Chem, 2019).
